Data published in paper PMC5989226 (Nature Communications, 2018).

Experiments:
Assay type in all cases: binding
[1] = target: T1, DELAY OF GERMINATION1 (DOG1) (Arabidopsis thaliana, UniProt A0SVK0, H245A); test: UV-visible absorption hemin titration ([…] nm)
T1 construct: full-length, N-terminal His6-tagged

[2] = target: T2, DELAY OF GERMINATION1 (DOG1) (Arabidopsis thaliana, UniProt A0SVK0); test: UV-visible absorption titration of apo-DOG1 with hemin (Soret peak, […] nm), […] fit
T2 sequence (A0SVK0 1-291): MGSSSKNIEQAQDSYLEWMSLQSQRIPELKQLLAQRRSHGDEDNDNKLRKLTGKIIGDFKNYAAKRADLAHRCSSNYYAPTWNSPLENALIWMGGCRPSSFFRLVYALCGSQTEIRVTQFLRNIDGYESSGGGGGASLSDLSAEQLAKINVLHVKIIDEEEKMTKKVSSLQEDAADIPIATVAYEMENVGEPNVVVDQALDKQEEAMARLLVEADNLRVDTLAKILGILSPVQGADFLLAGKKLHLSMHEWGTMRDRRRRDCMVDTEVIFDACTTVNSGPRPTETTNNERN

[3] = target: T3, DELAY OF GERMINATION1 (DOG1) (Arabidopsis thaliana, UniProt A0SVK0, H245A/H249A); test: UV-visible absorption hemin titration ([…] nm)
T3 construct: full-length, N-terminal His6-tagged
T3 sequence (A0SVK0 whole entry H245A/H249A): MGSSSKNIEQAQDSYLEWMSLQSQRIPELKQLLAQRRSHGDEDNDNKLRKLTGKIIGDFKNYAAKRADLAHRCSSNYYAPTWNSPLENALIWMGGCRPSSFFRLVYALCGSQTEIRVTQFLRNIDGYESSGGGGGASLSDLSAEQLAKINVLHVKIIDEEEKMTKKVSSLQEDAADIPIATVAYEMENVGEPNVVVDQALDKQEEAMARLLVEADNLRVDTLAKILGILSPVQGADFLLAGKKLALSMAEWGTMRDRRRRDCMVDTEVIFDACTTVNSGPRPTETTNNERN

T1 sequence (A0SVK0 whole entry H245A): as the sequence (A0SVK0 whole entry H245A/H249A) above, with A249H counted along it

## C=CC1=C(C)C2=Cc3c(C=C)c(C)c4[n]3[Fe]([Cl])[n]3c(c(C)c(CCC(=O)O)c3=CC3=NC(=C4)C(C)=C3CCC(=O)O)=CC1=N2 [hemin]
[1]
  Kd: 129 nM
[2]
  Kd: 59 nM
[3]
  Kd: 918 nM
